From ChEMBL document CHEMBL5291721, “A preclinical secondary pharmacology resource illuminates target-adverse drug reaction associations of marketed drugs” (Nat Commun, 2023) come the findings set out here.

Assay [1] deals with T1, Thromboxane A2 receptor (Homo sapiens, UniProt P21731).
T1 sequence (P21731 whole entry): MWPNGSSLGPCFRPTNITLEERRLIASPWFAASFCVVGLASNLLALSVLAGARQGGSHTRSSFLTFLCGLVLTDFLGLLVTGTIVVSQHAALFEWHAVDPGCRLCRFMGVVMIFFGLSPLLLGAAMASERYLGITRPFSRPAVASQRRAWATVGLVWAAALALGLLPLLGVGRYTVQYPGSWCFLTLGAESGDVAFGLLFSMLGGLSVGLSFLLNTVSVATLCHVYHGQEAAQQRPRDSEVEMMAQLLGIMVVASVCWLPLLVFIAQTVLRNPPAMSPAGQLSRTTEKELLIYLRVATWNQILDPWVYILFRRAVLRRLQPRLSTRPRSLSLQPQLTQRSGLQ

In assay [2] the target is D(3) dopamine receptor (Homo sapiens, UniProt P35462).
Chain of D(3) dopamine receptor (P35462 whole entry): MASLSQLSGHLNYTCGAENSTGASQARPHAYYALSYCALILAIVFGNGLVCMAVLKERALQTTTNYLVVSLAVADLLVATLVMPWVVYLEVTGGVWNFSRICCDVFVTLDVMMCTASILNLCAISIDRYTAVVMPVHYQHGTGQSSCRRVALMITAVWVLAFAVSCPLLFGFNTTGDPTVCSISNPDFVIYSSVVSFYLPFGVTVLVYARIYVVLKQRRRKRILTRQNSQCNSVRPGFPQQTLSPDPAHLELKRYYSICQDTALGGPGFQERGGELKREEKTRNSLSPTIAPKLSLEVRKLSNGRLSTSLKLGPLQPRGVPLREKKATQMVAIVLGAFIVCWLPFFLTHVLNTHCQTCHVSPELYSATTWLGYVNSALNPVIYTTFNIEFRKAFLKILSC
Assay [3] concerns the target Acetylcholinesterase (Homo sapiens, UniProt P22303). It is filed as functional.
Assay [4] has as its target Voltage-gated inwardly rectifying potassium channel KCNH2 (Homo sapiens, UniProt Q12809). It counts as functional. Conditions: read-out: AC50.
Assay [5] concerns the target T2, Alpha-1A adrenergic receptor (Homo sapiens, UniProt P35348).
T2 sequence (P35348 whole entry): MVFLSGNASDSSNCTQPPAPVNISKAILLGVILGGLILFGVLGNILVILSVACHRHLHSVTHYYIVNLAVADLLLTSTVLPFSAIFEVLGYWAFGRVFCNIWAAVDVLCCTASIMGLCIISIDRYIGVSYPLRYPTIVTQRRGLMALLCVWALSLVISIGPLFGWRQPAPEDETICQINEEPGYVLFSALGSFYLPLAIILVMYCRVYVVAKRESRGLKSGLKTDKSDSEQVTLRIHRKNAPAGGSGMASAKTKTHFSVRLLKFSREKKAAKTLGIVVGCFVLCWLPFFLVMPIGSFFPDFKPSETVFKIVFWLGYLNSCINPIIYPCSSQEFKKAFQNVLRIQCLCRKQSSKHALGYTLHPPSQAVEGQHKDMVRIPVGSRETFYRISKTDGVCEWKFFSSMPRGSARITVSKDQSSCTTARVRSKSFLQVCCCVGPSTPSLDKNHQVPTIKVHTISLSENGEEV
It counts as functional, cell-based.

The target in assay [6] is T2, Alpha-1A adrenergic receptor. It is filed as functional, cell-based. The source holds these as a separate data set.
Assay [7] deals with T3, Alpha-2A adrenergic receptor (Homo sapiens, UniProt P08913).
T3 sequence (P08913 whole entry): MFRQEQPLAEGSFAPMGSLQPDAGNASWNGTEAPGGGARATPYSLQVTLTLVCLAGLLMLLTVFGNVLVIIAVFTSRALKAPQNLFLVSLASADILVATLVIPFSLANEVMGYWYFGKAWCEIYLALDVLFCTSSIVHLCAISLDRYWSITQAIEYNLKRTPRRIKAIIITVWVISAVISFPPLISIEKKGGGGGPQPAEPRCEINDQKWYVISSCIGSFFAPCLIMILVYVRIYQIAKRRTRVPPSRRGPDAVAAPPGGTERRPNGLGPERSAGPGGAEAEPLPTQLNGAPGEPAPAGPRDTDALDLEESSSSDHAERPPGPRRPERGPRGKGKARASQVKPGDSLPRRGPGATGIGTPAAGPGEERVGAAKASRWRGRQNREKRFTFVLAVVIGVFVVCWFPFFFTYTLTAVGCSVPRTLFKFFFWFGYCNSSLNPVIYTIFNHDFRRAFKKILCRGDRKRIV

Assay [8] addresses T4, Muscarinic acetylcholine receptor M2 (Homo sapiens, UniProt P08172).
T4 sequence (P08172 whole entry): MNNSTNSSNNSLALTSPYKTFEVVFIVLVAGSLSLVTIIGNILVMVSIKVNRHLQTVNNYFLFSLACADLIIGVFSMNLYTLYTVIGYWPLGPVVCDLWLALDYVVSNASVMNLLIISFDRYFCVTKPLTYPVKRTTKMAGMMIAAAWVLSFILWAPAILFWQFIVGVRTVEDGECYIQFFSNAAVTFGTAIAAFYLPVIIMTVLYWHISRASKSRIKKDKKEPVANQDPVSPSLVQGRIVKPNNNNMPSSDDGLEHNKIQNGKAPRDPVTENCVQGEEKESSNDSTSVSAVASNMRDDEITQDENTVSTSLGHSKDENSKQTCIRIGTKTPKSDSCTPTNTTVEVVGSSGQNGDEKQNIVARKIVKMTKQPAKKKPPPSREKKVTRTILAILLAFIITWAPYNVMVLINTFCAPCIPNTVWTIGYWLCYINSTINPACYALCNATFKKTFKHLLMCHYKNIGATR

For assay [9], the target named is D(1A) dopamine receptor (Homo sapiens, UniProt P21728).
Chain of D(1A) dopamine receptor (P21728 whole entry): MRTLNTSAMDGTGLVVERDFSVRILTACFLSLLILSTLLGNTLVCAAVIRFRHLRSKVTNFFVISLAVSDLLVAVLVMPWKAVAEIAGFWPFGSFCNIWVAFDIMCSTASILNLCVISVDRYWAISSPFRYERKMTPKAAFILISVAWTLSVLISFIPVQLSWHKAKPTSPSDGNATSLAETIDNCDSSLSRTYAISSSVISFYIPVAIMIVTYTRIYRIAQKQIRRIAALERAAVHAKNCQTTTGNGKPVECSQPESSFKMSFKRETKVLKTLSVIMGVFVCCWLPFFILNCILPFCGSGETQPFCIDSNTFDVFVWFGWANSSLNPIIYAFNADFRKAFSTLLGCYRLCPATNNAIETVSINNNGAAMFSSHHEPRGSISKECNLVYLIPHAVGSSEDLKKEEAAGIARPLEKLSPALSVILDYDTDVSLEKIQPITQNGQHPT
Assay [10] concerns the target Gamma-aminobutyric acid receptor subunit alpha-1/alpha-2/beta-2/gamma-2 (Homo sapiens, UniProt P14867+P18507+P47869+P47870). It is filed as protein-complex assay.
Assay [11] concerns the target Histamine H3 receptor (Homo sapiens, UniProt Q9Y5N1).
For assay [12], the target named is T5, 5-hydroxytryptamine receptor 1A (Homo sapiens, UniProt P08908).
T5 sequence (P08908 whole entry): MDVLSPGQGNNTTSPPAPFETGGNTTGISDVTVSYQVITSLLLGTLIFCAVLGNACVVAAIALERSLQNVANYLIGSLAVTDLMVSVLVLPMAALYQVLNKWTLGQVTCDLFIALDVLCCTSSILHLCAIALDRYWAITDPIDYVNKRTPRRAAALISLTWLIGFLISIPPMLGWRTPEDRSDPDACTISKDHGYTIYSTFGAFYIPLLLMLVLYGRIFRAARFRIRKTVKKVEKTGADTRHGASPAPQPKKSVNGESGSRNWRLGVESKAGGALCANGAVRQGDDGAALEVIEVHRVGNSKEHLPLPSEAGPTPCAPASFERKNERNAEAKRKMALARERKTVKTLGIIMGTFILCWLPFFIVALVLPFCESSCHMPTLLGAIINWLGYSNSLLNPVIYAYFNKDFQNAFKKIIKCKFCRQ

The target of assay [13] is 5-hydroxytryptamine receptor 2B (Homo sapiens, UniProt P41595). It is filed as functional, cell-based.
Chain of 5-hydroxytryptamine receptor 2B (P41595 whole entry): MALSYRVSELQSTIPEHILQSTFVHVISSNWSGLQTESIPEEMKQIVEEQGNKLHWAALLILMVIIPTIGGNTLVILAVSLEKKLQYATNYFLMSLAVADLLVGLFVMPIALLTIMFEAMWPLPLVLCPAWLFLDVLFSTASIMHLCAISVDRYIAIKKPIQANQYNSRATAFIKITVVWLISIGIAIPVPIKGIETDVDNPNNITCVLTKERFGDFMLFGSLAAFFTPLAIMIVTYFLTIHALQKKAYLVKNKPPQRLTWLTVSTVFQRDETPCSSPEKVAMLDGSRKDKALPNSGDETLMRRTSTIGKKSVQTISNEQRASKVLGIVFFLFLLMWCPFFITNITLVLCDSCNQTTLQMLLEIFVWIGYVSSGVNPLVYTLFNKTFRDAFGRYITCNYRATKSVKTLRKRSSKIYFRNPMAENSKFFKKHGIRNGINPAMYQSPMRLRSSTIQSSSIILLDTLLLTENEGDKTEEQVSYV
Assay [14] deals with T6, Amine oxidase [flavin-containing] A (Homo sapiens, UniProt P21397).
T6 sequence (P21397 whole entry): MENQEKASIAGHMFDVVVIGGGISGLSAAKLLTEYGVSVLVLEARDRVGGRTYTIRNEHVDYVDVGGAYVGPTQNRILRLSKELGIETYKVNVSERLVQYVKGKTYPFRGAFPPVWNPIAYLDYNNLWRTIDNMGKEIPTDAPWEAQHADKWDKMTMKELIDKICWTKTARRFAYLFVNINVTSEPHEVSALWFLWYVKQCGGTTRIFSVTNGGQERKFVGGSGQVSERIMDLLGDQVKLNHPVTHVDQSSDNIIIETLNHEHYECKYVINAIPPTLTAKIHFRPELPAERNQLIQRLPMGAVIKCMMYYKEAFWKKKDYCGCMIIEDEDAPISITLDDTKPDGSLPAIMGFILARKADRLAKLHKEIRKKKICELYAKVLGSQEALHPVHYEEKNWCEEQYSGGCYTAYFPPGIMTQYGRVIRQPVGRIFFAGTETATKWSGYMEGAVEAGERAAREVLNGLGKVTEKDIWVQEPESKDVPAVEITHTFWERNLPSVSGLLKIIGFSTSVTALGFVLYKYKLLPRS
It counts as functional.

In assay [15] the target is Mu-type opioid receptor (Homo sapiens, UniProt P35372).
Chain of Mu-type opioid receptor (P35372 whole entry): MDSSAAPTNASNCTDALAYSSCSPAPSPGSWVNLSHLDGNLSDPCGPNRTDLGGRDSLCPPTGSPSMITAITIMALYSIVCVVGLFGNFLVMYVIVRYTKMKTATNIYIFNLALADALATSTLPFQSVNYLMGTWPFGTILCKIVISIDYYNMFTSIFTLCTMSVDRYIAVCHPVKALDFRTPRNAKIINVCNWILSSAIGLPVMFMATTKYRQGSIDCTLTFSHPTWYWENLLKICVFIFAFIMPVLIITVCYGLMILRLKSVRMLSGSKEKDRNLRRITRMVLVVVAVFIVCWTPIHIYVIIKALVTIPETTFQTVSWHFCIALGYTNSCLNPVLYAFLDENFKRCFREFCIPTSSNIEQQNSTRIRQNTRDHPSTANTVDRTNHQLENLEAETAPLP
The target of assay [16] is Sodium-dependent noradrenaline transporter (Homo sapiens, UniProt P23975).
Assay [17] has as its target Sodium-dependent dopamine transporter (Homo sapiens, UniProt Q01959).
Assay [18] addresses T7, Adenosine receptor A3 (Homo sapiens, UniProt P0DMS8).
T7 sequence (P0DMS8 whole entry): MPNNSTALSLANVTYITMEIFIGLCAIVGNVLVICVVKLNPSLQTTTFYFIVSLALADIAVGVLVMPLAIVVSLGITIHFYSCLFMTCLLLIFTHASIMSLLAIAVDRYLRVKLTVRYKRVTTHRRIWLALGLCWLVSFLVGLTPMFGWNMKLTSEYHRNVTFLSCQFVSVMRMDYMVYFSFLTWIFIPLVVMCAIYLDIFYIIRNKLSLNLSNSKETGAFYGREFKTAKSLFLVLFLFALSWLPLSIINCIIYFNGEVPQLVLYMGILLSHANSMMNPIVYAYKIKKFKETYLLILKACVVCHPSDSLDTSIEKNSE

The structures appear in SMILES notation.
Also: assay procedure not described here.

Chain of Acetylcholinesterase (P22303 whole entry): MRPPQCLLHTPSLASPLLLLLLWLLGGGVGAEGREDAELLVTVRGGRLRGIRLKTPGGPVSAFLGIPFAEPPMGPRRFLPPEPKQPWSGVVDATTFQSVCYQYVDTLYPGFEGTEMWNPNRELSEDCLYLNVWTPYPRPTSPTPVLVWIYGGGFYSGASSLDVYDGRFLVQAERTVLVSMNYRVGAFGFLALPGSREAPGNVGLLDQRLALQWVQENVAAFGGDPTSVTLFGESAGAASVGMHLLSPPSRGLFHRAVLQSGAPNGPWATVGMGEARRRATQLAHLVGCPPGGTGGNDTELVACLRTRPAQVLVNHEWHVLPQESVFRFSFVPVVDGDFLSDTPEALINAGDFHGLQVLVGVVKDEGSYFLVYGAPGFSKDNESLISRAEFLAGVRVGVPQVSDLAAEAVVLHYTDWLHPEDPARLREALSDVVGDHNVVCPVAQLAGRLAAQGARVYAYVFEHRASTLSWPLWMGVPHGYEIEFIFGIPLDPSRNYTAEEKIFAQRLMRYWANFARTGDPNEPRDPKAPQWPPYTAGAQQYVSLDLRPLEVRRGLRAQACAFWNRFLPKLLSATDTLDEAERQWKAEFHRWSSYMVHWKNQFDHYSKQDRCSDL
Chain of Voltage-gated inwardly rectifying potassium channel KCNH2 (Q12809 whole entry): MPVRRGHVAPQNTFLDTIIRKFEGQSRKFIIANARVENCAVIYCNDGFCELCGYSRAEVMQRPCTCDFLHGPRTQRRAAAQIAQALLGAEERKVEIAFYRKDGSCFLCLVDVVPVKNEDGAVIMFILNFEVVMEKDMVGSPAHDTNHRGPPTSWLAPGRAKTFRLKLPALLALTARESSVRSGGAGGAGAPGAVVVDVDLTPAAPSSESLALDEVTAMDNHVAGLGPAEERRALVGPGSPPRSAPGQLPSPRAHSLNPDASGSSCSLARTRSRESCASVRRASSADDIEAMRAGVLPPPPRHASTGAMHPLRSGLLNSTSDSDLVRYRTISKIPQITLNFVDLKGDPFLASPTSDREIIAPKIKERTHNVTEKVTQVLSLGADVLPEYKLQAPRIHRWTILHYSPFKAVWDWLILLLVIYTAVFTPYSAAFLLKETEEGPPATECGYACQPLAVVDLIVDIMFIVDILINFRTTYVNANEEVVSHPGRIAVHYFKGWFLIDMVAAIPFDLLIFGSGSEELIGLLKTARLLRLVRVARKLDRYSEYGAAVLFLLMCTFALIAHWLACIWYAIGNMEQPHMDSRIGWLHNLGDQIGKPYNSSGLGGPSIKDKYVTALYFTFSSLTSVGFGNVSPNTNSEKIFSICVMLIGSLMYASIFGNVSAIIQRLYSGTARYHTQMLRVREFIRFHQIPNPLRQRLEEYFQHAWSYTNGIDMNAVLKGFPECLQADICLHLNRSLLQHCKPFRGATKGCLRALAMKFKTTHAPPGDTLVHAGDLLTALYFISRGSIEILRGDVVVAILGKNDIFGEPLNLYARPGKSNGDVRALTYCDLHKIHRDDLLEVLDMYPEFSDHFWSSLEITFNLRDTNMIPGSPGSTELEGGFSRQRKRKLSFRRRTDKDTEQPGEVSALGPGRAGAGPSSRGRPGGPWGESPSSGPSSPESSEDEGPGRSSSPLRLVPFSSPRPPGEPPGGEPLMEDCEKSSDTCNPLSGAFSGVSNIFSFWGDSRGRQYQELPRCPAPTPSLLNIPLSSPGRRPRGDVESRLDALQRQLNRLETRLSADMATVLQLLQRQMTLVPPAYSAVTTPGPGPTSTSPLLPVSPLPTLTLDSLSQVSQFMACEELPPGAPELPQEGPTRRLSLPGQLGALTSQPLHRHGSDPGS
Chain of Sodium-dependent dopamine transporter (Q01959 whole entry): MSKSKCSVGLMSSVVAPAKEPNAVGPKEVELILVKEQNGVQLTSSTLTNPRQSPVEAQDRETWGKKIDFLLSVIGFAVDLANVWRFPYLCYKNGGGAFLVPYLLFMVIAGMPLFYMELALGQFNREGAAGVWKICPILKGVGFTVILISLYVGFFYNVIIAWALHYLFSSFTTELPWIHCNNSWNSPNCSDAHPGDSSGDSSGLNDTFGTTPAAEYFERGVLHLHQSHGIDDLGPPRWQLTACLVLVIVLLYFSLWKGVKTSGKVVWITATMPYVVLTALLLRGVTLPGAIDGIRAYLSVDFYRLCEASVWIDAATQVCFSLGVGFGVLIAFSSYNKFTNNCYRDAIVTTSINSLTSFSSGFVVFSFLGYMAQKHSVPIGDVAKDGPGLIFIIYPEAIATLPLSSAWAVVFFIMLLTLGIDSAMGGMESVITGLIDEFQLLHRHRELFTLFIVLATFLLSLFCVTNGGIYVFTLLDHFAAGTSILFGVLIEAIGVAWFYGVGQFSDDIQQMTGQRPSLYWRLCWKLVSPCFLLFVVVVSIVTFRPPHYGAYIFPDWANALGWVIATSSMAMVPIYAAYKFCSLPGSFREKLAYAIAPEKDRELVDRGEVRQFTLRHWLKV
Chain of Histamine H3 receptor (Q9Y5N1 whole entry): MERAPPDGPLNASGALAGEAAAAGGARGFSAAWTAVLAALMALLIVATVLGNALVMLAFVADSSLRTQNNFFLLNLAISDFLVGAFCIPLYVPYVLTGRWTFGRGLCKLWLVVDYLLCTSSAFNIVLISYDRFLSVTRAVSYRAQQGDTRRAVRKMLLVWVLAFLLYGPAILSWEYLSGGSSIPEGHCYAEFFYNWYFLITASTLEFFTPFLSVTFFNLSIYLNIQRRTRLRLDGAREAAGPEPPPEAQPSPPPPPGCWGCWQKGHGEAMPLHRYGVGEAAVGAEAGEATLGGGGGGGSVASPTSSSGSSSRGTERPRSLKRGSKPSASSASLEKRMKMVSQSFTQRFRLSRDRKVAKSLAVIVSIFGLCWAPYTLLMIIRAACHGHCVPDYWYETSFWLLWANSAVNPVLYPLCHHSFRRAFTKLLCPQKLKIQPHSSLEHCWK

Turning to `CCCCC[C@H](O)/C=C/[C@H]1[C@H](O)CC(=O)[C@@H]1CCCCCCC(=O)O` [ALPROSTADIL], the half-maximal activity concentration (AC50) (as a rule, the midpoint of the concentration-response curve, whichever way the signal moves) in assay [1] was above 10 µM.

As for `CN(C)CC/C=C1/c2ccccc2Sc2ccc(Cl)cc21` [CHLORPROTHIXENE], in assay [2], the AC50 stood at 0.003 µM.

The molecule `O=C(O)CN(CCN(CC(=O)O)CC(=O)O)CC(=O)O` [EDETIC ACID] returned an AC50 in assay [3] above 30 µM.

Regarding `COc1ccc2c3c1O[C@H]1C[C@@H](O)C=C[C@@]31CCN(C)C2` [GALANTAMINE], in assay [4], the AC50 was above 30 µM.

Turning to `CC[N+](CC)(CC)CCOc1cccc(OCC[N+](CC)(CC)CC)c1OCC[N+](CC)(CC)CC` [GALLAMINE], the results for the AC50 in [3] and in [4] were above 30 µM and 8.99 µM, respectively.

For the molecule `Oc1ccccc1` [PHENOL], the AC50 in [3], in assay [5], in assay [6], in [7], in assay [8] and in [9] was above 30 µM in each case. Moreover, the AC50 in assay [2], in assay [10], in assay [11], in assay [12], in [13] and in assay [14] was above 30 µM each time. Moreover, the AC50 in assay [15], in assay [16] and in [17] was above 30 µM each time.

The molecule `CNC(=C[N+](=O)[O-])NCCSCc1ccc(CN(C)C)o1` [RANITIDINE] showed an AC50 in [18] above 30 µM.
